Results: the METLIN SMRT retention time set (Domingo-Almenara et al. 2019)

Experiment: gradient 5% acetonitrile 3 min, to 50% in 2 min, to 85% in 15 min, held 3 min, 100 µL/min
Settings: column: Zorbax Extend-C18 2.1 x 50 mm; eluents: water / acetonitrile, 0.1% formic acid
How it was run: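 The mobile phases were water and acetonitrile, each with 0.1% formic acid, pumped at 100 μL/min through a Zorbax Extend-C18 column (2.1 × 50 mm, 1.8 μm). Pure standards were injected as mixtures of ~100 molecules and detected by a quadrupole time-of-flight mass spectrometer in positive and negative ionization mode. Retention time came from computationally picked adduct peaks, each inspected by hand.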

With `Cn1c(-c2ccccc2)c(C(=O)C(=O)N2CCOCC2)c2ccccc21` the RP-LC retention time was 800 s.

`O=C(CCn1nnc2cc(-c3noc(-c4cccc(F)c4)n3)ccc21)N1CCCC1` showed an RP-LC retention time of 928 s.

Work on `COc1ccc(-n2c(=O)n(C)c(=O)c3cc(C(=O)Nc4cc(C)ccc4F)cnc32)cc1` yielded an RP-LC retention time of 912 s.

With `O=C(CN1C(=O)NC(c2ccccc2Cl)C2=C1COC2=O)Nc1ccc(F)c(Cl)c1` (stereo not drawn) the RP-LC retention time was 837 s.

Work on `CCN(CC)C(=O)C1CCN(c2nc3ccc(-c4cccs4)nc3s2)CC1` yielded an RP-LC retention time of 992 s.

In the case of `Cc1cc2[nH]c(C(=O)Nc3ccc(F)c(C)c3)c(CN3CCOCC3)c2s1`, the RP-LC retention time is reported as 720 s.

`Cc1c(C2CCN(C(=O)NCCc3ccccc3)CC2)noc1N` showed an RP-LC retention time of 700 s.

Work on `COc1cc(CNC(=O)CCc2c(-c3ccc(F)cc3)nc3ccccn23)cc(OC)c1OC` yielded an RP-LC retention time of 632 s.

In the case of `Cc1ccc(C2Cn3cnc(C(=O)N4CCC(C(=O)NCc5ccccc5C)CC4)c3CO2)cc1` (stereo not drawn), the RP-LC retention time is reported as 810 s.

In the case of `Cc1nc(Nc2ccc(Cl)cn2)sc1C(=O)NCCN(C)C`, the RP-LC retention time is reported as 602 s.

In the case of `COc1cccc(CNC(=O)C2(C)CCN(C(=O)Nc3ccc(C)c(Cl)c3)CC2)c1`, the RP-LC retention time is reported as 930 s.

With `CCN1CCN(c2ccc(-c3ccc(OC)c(S(=O)(=O)N4CCCC4)c3)nn2)CC1` the RP-LC retention time was 606 s.

Molecule `COc1cccc2cc(C(=O)Nc3nc(C)cs3)oc12` has an RP-LC retention time of 804 s.

In the case of `CC1CCN(C(=O)C2CCN(S(C)(=O)=O)c3cc(Cl)ccc3O2)CC1` (stereo not drawn), the RP-LC retention time is reported as 922 s.

`Cc1ccc(-n2cc(C3=CCN(CC(=O)NCc4cccs4)CC3)cn2)cc1C` showed an RP-LC retention time of 735 s.

Molecule `CCn1c(=O)oc2cc(-c3noc(-c4ccc(C)c(F)c4)n3)ccc21` has an RP-LC retention time of 1200 s.

`COc1ccc(CC(=O)N2CCC3(C2)C(=O)Nc2ccccc23)cc1Cl` (stereo not drawn) showed an RP-LC retention time of 761 s.

In the case of `O=c1cc(CN2CCN(c3ncccn3)CC2)nc2sccn12`, the RP-LC retention time is reported as 542 s.

With `Cc1cc(C)c(CNC(=O)C2CC(=O)N(c3cccc(NC(=O)C4CCC4)c3)C2)c(C)c1` (stereo not drawn) the RP-LC retention time was 892 s.

`Cc1cc(=O)n(CC(=O)Nc2cccc(C)c2C)c(NCCCc2ccccc2)n1` gave an RP-LC retention time of 892 s.

For `COCCC(=O)N1CCCn2nc(-c3cccs3)cc2C1`, the RP-LC retention time was 682 s.

`O=C(Cn1c(=O)c(S(=O)(=O)c2ccccc2)cc2ccccc21)NCc1ccccc1` showed an RP-LC retention time of 858 s.

`O=C(Cc1ccccc1)NC(c1ccccc1)c1ccc2cccnc2c1O` (stereo not drawn) gave an RP-LC retention time of 822 s.

`O=C(COc1ccc(Cl)cc1)N1CCC(c2nnc(-c3ccc(F)cc3)o2)CC1` showed an RP-LC retention time of 831 s.

`CCOc1ccc(-c2cn3ccn(-c4ccc(F)c(Cl)c4)c(=O)c3n2)cc1` gave an RP-LC retention time of 918 s.

`CCn1c(C)cc(=O)c2cc(C(=O)Nc3nc(C)c(C)s3)ccc21` gave an RP-LC retention time of 578 s.

For `COc1ccc(CNC(=O)Cn2cc(-c3nnc(C)o3)ccc2=O)cc1`, the RP-LC retention time was 635 s.

`COc1ccc(CC(=O)N(C)C2CCN(c3nccnc3OC)C2)cc1` (stereo not drawn) showed an RP-LC retention time of 684 s.

Work on `COc1ccc(-c2c(C)noc2NC(C)=O)cc1S(=O)(=O)NCCc1ccc(Cl)cc1` yielded an RP-LC retention time of 894 s.

With `CC1=NS(=O)(=O)N(C)C=C1C(=O)OCCC(C)C` the RP-LC retention time was 966 s.

Molecule `CCn1cc(-c2nc(CC(=O)NCc3ccc(F)cc3)cs2)c2cccnc21` has an RP-LC retention time of 865 s.

In the case of `O=C(c1cccs1)N1CCN(c2ccc(-c3noc(C4CC4)n3)cc2)CC1`, the RP-LC retention time is reported as 949 s.

`Cc1ccc(C(=O)NCC2CCCN(S(=O)(=O)c3c(C)cc(C)cc3C)C2)cc1` (stereo not drawn) showed an RP-LC retention time of 1060 s.

`CCCC[C@@]1(C2CCCC2)Cc2cc(OCC(=O)O)c(Cl)c(Cl)c2C1=O` showed an RP-LC retention time of 1320 s.

For `CC(=O)N1c2ccc(S(=O)(=O)N3CCCCC3)cc2CC1C(=O)NCCC(C)C` (stereo not drawn), the RP-LC retention time was 822 s.

Work on `O=c1ccc(-c2cccs2)nn1CCNS(=O)(=O)c1ccccc1C(F)(F)F` yielded an RP-LC retention time of 779 s.

Molecule `COc1cc(C(=O)NC(C)C(=O)Nc2nc3ccccc3[nH]2)cc(OC)c1OC` (stereo not drawn) has an RP-LC retention time of 767 s.

In the case of `CN(CC(=O)Nc1ccc(F)cc1)C(=O)C1CCN(c2cnn(C)c(=O)c2)C1` (stereo not drawn), the RP-LC retention time is reported as 634 s.

Molecule `O=C(Nc1cccc(Cl)c1)N1CCN(c2ncc(C(F)(F)F)cc2Cl)CC1` has an RP-LC retention time of 1190 s.

Work on `CCCN1C(=O)c2cc(S(=O)(=O)Nc3ccc(Cl)cc3)ccc2Oc2cccnc21` yielded an RP-LC retention time of 1110 s.

For `O=C(CCCc1nnc2c(=O)n(-c3cccc(F)c3)ccn12)NCCc1c[nH]c2ccccc12`, the RP-LC retention time was 707 s.

`Cc1nn(CC(=O)NCCCN2CCCC2=O)c(=O)c2nc(-c3ccccc3)sc12` gave an RP-LC retention time of 668 s.

With `Cc1ccc(NC(=O)Cn2nc3c(N4CCN(c5ccccc5)CC4)nccn3c2=O)cc1C` the RP-LC retention time was 975 s.

`CC1CCN(S(=O)(=O)c2cc(C(=O)N3CCN(c4ccc(F)cc4)CC3)n(C)c2)CC1` gave an RP-LC retention time of 1010 s.

In the case of `O=S(=O)(c1cc(-c2noc(C3CC3)n2)cs1)N1CCN(c2ccccn2)CC1`, the RP-LC retention time is reported as 719 s.

`O=C(CCc1c(-c2cccc(Cl)c2)nc2ccccn12)NCc1ccco1` gave an RP-LC retention time of 637 s.

Work on `COC(=O)c1ccccc1NC(=O)C1CN(C(=O)c2ccc(F)c(F)c2)C1` yielded an RP-LC retention time of 803 s.

In the case of `COCC(=O)Nc1ccc2c(c1)N(C(=O)c1cccs1)CCC2`, the RP-LC retention time is reported as 758 s.

For `CCNc1cc(N2CCC(CCC(=O)NCc3cccc(F)c3)CC2)ncn1`, the RP-LC retention time was 665 s.

`Cn1nc2c(c1NC(=O)c1cc(C(F)(F)F)cc(C(F)(F)F)c1)CCC2` showed an RP-LC retention time of 927 s.

Work on `CC(C)N1CCC(OCCCNC(=O)CN2CCCc3nc(C4CC4)ncc3C2=O)CC1` yielded an RP-LC retention time of 576 s.

Molecule `CCOc1ccccc1-n1ccn(Cc2nc(-c3ccc(C)cc3)no2)c(=O)c1=O` has an RP-LC retention time of 920 s.

For `COC(=O)c1cc(S(=O)(=O)N2CCCC2C(=O)Nc2cccc3ccccc23)cn1C` (stereo not drawn), the RP-LC retention time was 916 s.

In the case of `CC(=O)OC1CCN(C(=O)c2cccc(C#N)c2)CC1`, the RP-LC retention time is reported as 706 s.

Work on `O=C(Nc1ccc2cn[nH]c2c1)c1ccc2nc[nH]c2c1` yielded an RP-LC retention time of 541 s.

`Fc1ccc(C2Cn3cnc(-c4nc(-c5cccs5)no4)c3CO2)cc1` (stereo not drawn) showed an RP-LC retention time of 1010 s.

Work on `CCOc1ccc(S(=O)(=O)NCC(c2cn(C)c3ccccc23)N(C)C)cc1F` (stereo not drawn) yielded an RP-LC retention time of 603 s.

`Cc1ccc(-c2nc(C3CC(=O)N(C4CCCCC4)C3)no2)cn1` (stereo not drawn) gave an RP-LC retention time of 771 s.

In the case of `CC(CCc1ccccc1)NC(=O)CCc1c(-c2ccc(F)cc2)nc2ccccn12` (stereo not drawn), the RP-LC retention time is reported as 727 s.

Work on `Cc1ccc(S(=O)(=O)N2C(=O)CCC2C(=O)Nc2ccc(C)c(F)c2)cc1C` (stereo not drawn) yielded an RP-LC retention time of 1020 s.

Work on `CCC(C(=O)NCCc1cnc[nH]1)n1c2ccccc2c2cnn(C)c(=O)c21` (stereo not drawn) yielded an RP-LC retention time of 603 s.

Work on `COc1ccc(NC(=O)c2cnc(N3CCN(C(C)C)CC3)nc2N)cc1` yielded an RP-LC retention time of 593 s.

`C[C@H]1CN(C(=O)Nc2ccc(F)cc2)C[C@@H]1c1nc(-c2cccnc2)no1` showed an RP-LC retention time of 760 s.

In the case of `Cc1ccc(NC(=O)Cn2c(=O)n(-c3ccc(F)cc3)c(=O)c3c2cc(C)n3C)cc1Cl`, the RP-LC retention time is reported as 946 s.

With `O=C(NCc1ccccc1Cl)C1c2ccccc2CCN1C(=O)C1CC1` (stereo not drawn) the RP-LC retention time was 881 s.

Work on `CCc1ccc(Nc2c(C(=O)N3CCOCC3)cnc3nc(C)ccc23)cc1` yielded an RP-LC retention time of 601 s.

In the case of `O=C(NCc1ccncc1)C1CCCN(c2nc3ccsc3c(=O)n2Cc2ccc(F)cc2)C1` (stereo not drawn), the RP-LC retention time is reported as 630 s.

For `O=C1NC2(CCN(C(=O)Cc3cccc(F)c3)CC2)Nc2cc(Cl)ccc21`, the RP-LC retention time was 808 s.

`Cc1ncc2c(n1)CCN(C(=O)c1ccc(Br)cc1)C2` showed an RP-LC retention time of 675 s.

`O=C(c1cccc(Cl)c1)N1CCC(n2c(-c3ccco3)nc3cccnc32)C1` (stereo not drawn) showed an RP-LC retention time of 776 s.

Molecule `Cc1c(C(=O)N2CCC(C)CC2)cnn1-c1ccc(-c2nc(C(C)(C)C)no2)cn1` has an RP-LC retention time of 1250 s.

With `COc1ccc(OC)c(NC(=O)N(C)CCc2noc(-c3ccc(Cl)cc3)n2)c1` the RP-LC retention time was 972 s.

With `O=C(NCc1ccccc1F)C1CCCN(c2nnc3ccc(Cl)cn23)C1` (stereo not drawn) the RP-LC retention time was 756 s.

With `Cc1nc(CC(=O)Nc2ccc(F)c(Cl)c2)sc1C(=O)NC1CC1` the RP-LC retention time was 759 s.

Work on `CCc1noc(NC(C)=O)c1-c1ccc(OC)c(S(=O)(=O)Nc2ccccc2OC)c1` yielded an RP-LC retention time of 791 s.

In the case of `CNS(=O)(=O)CCCOc1ccc2c(c1)OCO2`, the RP-LC retention time is reported as 697 s.

Molecule `COC(=O)c1c(C)[nH]c(C(=O)N2CCCC(C(=O)NCc3cccc(Br)c3)C2)c1C` (stereo not drawn) has an RP-LC retention time of 813 s.

With `O=C(NCc1csc(C2CCCN(C(=O)c3ccccc3)C2)n1)C1CCC1` (stereo not drawn) the RP-LC retention time was 712 s.

For `Cn1cc(CCNC(=O)c2ccccc2Br)c2cccnc21`, the RP-LC retention time was 660 s.

`CN(C)C(CNC(=O)c1cc(=O)c2cc(Cl)ccc2o1)c1ccccc1` (stereo not drawn) gave an RP-LC retention time of 650 s.

With `CCC(=O)N1CCc2cc(N3CC(C(=O)N4CCCN(C)CC4)CC3=O)ccc21` (stereo not drawn) the RP-LC retention time was 572 s.

In the case of `Cc1ccc(N2CCC(NC(=O)c3ccc(Cl)s3)C2=O)cc1` (stereo not drawn), the RP-LC retention time is reported as 888 s.

`O=C(CCc1csc2nc(C3CC3)cn12)NCc1ccc(OC(F)(F)F)cc1` showed an RP-LC retention time of 612 s.

Work on `Cc1ccc(-c2nc3ncccn3c2Nc2ccc(Cl)cc2)cc1` yielded an RP-LC retention time of 827 s.

In the case of `CCCN(C)C(=O)c1ccc(-n2cc(CNC(=O)C3CCC3)cn2)cc1`, the RP-LC retention time is reported as 695 s.

In the case of `Cc1ccc(CNC(=O)C2(C)CCN(C(=O)Nc3ccccc3C(F)(F)F)CC2)cc1`, the RP-LC retention time is reported as 927 s.

Molecule `Cc1ccn2cc(-c3ccc(NC(=O)c4cccs4)cc3)nc2n1` has an RP-LC retention time of 636 s.

`Cc1ccc(C)c(S(=O)(=O)N2CCc3nc[nH]c3C2)c1` gave an RP-LC retention time of 627 s.
